In US8921397B2, “Benzofurane-piperidine compounds” (Hoffmann-La Roche Inc., priority 2011, dated 2014):
pKi: −log10 of the molar value.

Columns and labels:
human 5-HT2A receptor = human 5-HT2A receptor (Homo sapiens (Human), UniProt P28223); assay: Radioligand binding ([3H]-ketanserin) to human 5-HT2A receptor, HEK293 EBNA membranes; details: HEK293 EBNA cells expressing human 5-HT2A receptor
Protocol: The ability of the compounds to bind to the 5-HT2A, D3 and D2 receptors was determined using radioligand binding to cloned receptors selectively expressed in HEK-293 EBNA cells.
(§1) HEK293 EBNA cells were transiently transfected with expression plasmids encoding for the human D2 or D3 or for the human 5-HT2A receptor, respectively. The cells were harvested 48 h post-transfection, washed three times with cold PBS and stored at −80° C. prior to use. The pellet was suspended in cold 50 mM Tris-HCl buffer containing 10 mM EDTA (pH 7.4) and was homogenized with a Polytron (Kinematica AG, Basel, Switzerland) for 20-30 sec at 12.000 rpm. After centrifugation at 48.000×g for 30 min at 4° C., the pellet was resuspended in cold 10 mM Tris-HCl buffer containing 0.1 mM EDTA (pH 7.4), homogenized, and centrifuged as above. This pellet was further resuspended in a smaller volume of ice cold 10 mM Tris-HCl buffer containing 0.1 mM EDTA (pH 7.4) and homogenized with a Polytron for 20-30 sec at 12.000 rpm. The protein content of this homogenate was determined with the Bio-Rad (Bradford) Protein Assay (Biorad Laboratories GmbH, München, Germany) according to the instructions of the manufacturer using gamma globulin as the standard. This homogenate was stored at −80° C. in aliquots and thawed immediately prior to use.
(§2) Aliquots of membrane preparations were thawed at RT, resuspended in assay buffer (D2, D3: 50 mM Tris-HCl, 120 mM NaCl, 5 mM MgCl2, 1 mM EDTA, 5 mM KCl, 1.5 mM CaCl2, pH=7.4; 5-HT2A: 50 mM Tris-HCl, 10 mM MgCl2, 1 mM EGTA, pH=7.4), homogenized with a Polytron for 20-30 sec at 12.000 rpm and adjusted to a final concentration of approximately 7.5 μg protein/well (D2, D3) and 15 μg protein/well (5-HT2A), respectively.
(§3) The binding affinity (Ki) of the compounds was determined using radioligand binding.
(§4) Membranes were incubated in a total volume of 200 μl with a fixed concentration of radioligand (final concentration approximately 0.7 nM [^3H]-spiperone for D2, 0.5 nM [^3 H]-spiperone for D3, and 1.1 nM [^3H]-ketanserin for 5-HT2A) and ten concentrations of test compound in ranging between 10 μM-0.1 nM for 1 h at RT. At the end of the incubation, the reaction mixtures were filtered on to unifilter 96-well white microplates with bonded GF/C filters (Packard BioScience, Zürich, Switzerland; preincubated for 1 h in 0.1% polyethylenimine (PEI) in assay buffer) with a Filtermate 196 harvester (Packard BioScience) and washed 3 times with cold assay buffer. The nonspecific binding was determined with equally composed reaction mixtures in the presence of 10 μM unlabelled spiperone. Per well 45 μl of Microscint 40 (Perkin Elmer, Schwerzenbach, Switzerland) was added, plates for sealed, shaken for 20 min and counted for 3 min on a Topcount Microplate Scintillation Counter (Canberra Packard SA, Zürich, Switzerland) with quenching correction.
(§5) The CPM value for each duplicate of a concentration of competing compound was averaged (y1), then the % specific binding was calculated according to the equation (((y1−non-specific)/(total binding−non-specific))×100). Graphs were plotted with the % specific binding using XLfit, a curve-fitting program that iteratively plots the data using Levenberg-Marquardt algorithm. The single site competition analysis equation used was y=A+((B−A)/(1+((x/C)D))), where y is the % specific binding, A is the minimum y, B is the maximum y, C is the IC50, x is the log 10 of the concentration of the competing compound and D is the slope of the curve (the Hill Coefficient). From these curves the IC50 (inhibition concentration at which 50% specific binding of the radioligand was displaced) and Hill coefficient were determined. The affinity constant (Ki) was calculated using the Cheng-Prusoff equation Ki=(IC50/1+([L]/Kd), where [L] is the concentration of radioligand and Kd is the dissociation constant of the radioligand at the receptor as determined by the saturation isotherm.

human D2 receptor = human D2 receptor (Homo sapiens (Human), UniProt P14416); assay: Radioligand binding ([3H]-spiperone) to human D2 receptor, HEK293 EBNA membranes; details: HEK293 EBNA cells expressing human D2 receptor
Protocol: as §1, §2, §3, §4, §5

human D3 receptor = human D3 receptor (Homo sapiens (Human), UniProt P35462); assay: Radioligand binding ([3H]-spiperone) to human D3 receptor, HEK293 EBNA membranes; details: HEK293 EBNA cells expressing human D3 receptor
Protocol: as §1, §2, §3, §4, §5

Chain of human D2 receptor (P14416 whole entry): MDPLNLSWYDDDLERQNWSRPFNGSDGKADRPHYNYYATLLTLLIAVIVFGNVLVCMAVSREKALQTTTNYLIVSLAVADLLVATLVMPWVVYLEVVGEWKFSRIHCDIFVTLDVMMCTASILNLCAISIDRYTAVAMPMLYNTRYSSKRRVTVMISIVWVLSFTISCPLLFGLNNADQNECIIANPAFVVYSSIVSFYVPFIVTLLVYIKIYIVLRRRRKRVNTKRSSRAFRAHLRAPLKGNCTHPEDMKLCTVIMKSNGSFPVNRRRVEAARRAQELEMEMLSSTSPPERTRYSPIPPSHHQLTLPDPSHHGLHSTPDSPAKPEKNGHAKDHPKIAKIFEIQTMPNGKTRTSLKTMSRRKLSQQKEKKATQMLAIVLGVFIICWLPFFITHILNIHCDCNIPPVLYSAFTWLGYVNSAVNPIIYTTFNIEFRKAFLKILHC
Chain of human 5-HT2A receptor (P28223 whole entry): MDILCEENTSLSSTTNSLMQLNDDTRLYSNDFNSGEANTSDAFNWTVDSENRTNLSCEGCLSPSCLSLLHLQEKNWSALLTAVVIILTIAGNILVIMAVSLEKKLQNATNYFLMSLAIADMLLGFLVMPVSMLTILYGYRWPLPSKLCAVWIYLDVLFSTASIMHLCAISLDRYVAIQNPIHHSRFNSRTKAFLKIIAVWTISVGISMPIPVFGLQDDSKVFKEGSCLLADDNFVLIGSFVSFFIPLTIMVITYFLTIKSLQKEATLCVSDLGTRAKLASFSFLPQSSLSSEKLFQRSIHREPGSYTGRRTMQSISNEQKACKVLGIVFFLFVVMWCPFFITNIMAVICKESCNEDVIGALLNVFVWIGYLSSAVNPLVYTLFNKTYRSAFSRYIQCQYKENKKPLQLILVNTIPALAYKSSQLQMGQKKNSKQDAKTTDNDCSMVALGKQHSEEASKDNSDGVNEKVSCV
Chain of human D3 receptor (P35462 whole entry): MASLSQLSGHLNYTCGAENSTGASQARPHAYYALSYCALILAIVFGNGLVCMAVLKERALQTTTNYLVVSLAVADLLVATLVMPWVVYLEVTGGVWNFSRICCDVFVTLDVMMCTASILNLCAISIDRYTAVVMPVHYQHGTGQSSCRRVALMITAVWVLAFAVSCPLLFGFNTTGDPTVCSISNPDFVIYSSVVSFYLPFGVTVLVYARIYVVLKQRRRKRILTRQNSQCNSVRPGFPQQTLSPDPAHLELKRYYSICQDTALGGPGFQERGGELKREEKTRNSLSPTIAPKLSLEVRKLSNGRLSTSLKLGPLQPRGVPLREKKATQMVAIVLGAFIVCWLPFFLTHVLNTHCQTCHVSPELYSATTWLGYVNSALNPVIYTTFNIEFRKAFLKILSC

Work on O=C(CC1CCC1)N[C@H]1CC[C@H](CCN2CCC(c3coc4ccccc34)CC2)CC1 [Example 48, trans-N-{4-[2-(4-Benzofuran-3-yl-piperidin-1-yl)-ethyl]-cyclohexyl}-2-cyclobutyl-acetamide] yielded a pKi (human 5-HT2A receptor) of 8.31, a pKi (human D2 receptor) of 7.23 and a melting point of 173 °C. The pKi (human D3 receptor) was 8.69.

CS(=O)(=O)c1ccc(C(=O)N[C@H]2CC[C@H](CCN3CCC(c4coc5ccccc45)CC3)CC2)s1 [Example 75, 5-Methanesulfonyl-thiophene-2-carboxylic acid trans-{4-[2-(4-benzofuran-3-yl-piperidin-1-yl)-ethyl]-cyclohexyl}-amide] showed a pKi (human 5-HT2A receptor) of 8.11, a pKi (human D2 receptor) of 7.22 and a melting point of 214 °C. It also gave a pKi (human D3 receptor) of 8.41.

Work on CC(C)CC(=O)N[C@H]1CC[C@H](CCN2CCC(c3coc4ccccc34)CC2)CC1 [Example 15, trans-N-{4-[2-(4-Benzofuran-3-yl-piperidin-1-yl)-ethyl]-cyclohexyl}-3-methyl-butyramide] yielded a pKi (human 5-HT2A receptor) of 8.06, a pKi (human D2 receptor) of 7.36 and a melting point of 182 °C. The pKi (human D3 receptor) was 8.71.

In the case of CC(C)Cc1ccc(C(=O)N[C@H]2CC[C@H](CCN3CCC(c4coc5ccccc45)CC3)CC2)cc1 [Example 80, trans-N-{4-[2-(4-Benzofuran-3-yl-piperidin-1-yl)-ethyl]-cyclohexyl}-4-isobutyl-benzamide], the pKi (human 5-HT2A receptor) was 8.57, the pKi (human D2 receptor) was 6.54 and the melting point was 190 °C. It also gave a pKi (human D3 receptor) of 8.38.

With O=CN[C@H]1CC[C@H](CCN2CCC(c3coc4ccccc34)CC2)CC1 [Example 56, trans-N-{4-[2-(4-Benzofuran-3-yl-piperidin-1-yl)-ethyl]-cyclohexyl}-formamide] the pKi (human 5-HT2A receptor) was 7.87, the pKi (human D2 receptor) was 7.41 and the melting point was 155 °C. The pKi (human D3 receptor) was 8.57.

Work on Cc1nc(-c2ccc(C(=O)N[C@H]3CC[C@H](CCN4CCC(c5coc6ccccc56)CC4)CC3)cc2)no1 [Example 61, trans-N-{4-[2-(4-Benzofuran-3-yl-piperidin-1-yl)-ethyl]-cyclohexyl}-4-(5-methyl-[1,2,4]oxadiazol-3-yl)-benzamide] yielded a pKi (human 5-HT2A receptor) of 7.82, a pKi (human D2 receptor) of 6.64 and a melting point of 194 °C. It also gave a pKi (human D3 receptor) of 8.54.

CC(C)CCC(=O)N[C@H]1CC[C@H](CCN2CCC(c3coc4ccccc34)CC2)CC1 [Example 45, 4-Methyl-pentanoic acid trans-{4-[2-(4-benzofuran-3-yl-piperidin-1-yl)-ethyl]-cyclohexyl}-amide] gave a pKi (human 5-HT2A receptor) of 7.88, a pKi (human D2 receptor) of 7.18 and a melting point of 179 °C. It also gave a pKi (human D3 receptor) of 8.54.

O=C(N[C@H]1CC[C@H](CCN2CCC(c3coc4ccccc34)CC2)CC1)c1ccccc1 [Example 9, trans-N-{4-[2-(4-Benzofuran-3-yl-piperidin-1-yl)-ethyl]-cyclohexyl}-benzamide] showed a pKi (human 5-HT2A receptor) of 8.36, a pKi (human D2 receptor) of 7.49 and a melting point of 189 °C. The pKi (human D3 receptor) was 8.87.

CC[C@H](O)CC(=O)N[C@H]1CC[C@H](CCN2CCC(c3coc4ccccc34)CC2)CC1 [Example 47, (S)-3-Hydroxy-pentanoic acid trans-{4-[2-(4-benzofuran-3-yl-piperidin-1-yl)-ethyl]-cyclohexyl}-amide] gave a pKi (human 5-HT2A receptor) of 8.04, a pKi (human D2 receptor) of 7.47 and a melting point of 140 °C. The pKi (human D3 receptor) was 8.65.

Compound CC(C)c1ccc(C(=O)N[C@H]2CC[C@H](CCN3CCC(c4coc5ccccc45)CC3)CC2)cc1 [Example 83, trans-N-{4-[2-(4-Benzofuran-3-yl-piperidin-1-yl)-ethyl]-cyclohexyl}-4-isopropyl-benzamide] has a pKi (human 5-HT2A receptor) of 8.59, a pKi (human D2 receptor) of 6.40 and a melting point of 188 °C. For the same compound, the pKi (human D3 receptor) was 8.32.

With CC(C)(C)C1CCC(C(=O)N[C@H]2CC[C@H](CCN3CCC(c4coc5ccccc45)CC3)CC2)CC1 (stereo partly drawn) [Example 77, 4-tert-Butyl-cyclohexanecarboxylic acid trans-{4-[2-(4-benzofuran-3-yl-piperidin-1-yl)-ethyl]-cyclohexyl}-amide] the pKi (human 5-HT2A receptor) was 8.22, the pKi (human D2 receptor) was 6.46 and the melting point was 199 °C. The pKi (human D3 receptor) was 8.02.

O=C(N[C@H]1CC[C@H](CCN2CCC(c3coc4ccccc34)CC2)CC1)c1cnc(N2CCOCC2)cn1 [Example 67, 5-Morpholin-4-yl-pyrazine-2-carboxylic acid trans-{4-[2-(4-benzofuran-3-yl-piperidin-1-yl)-ethyl]-cyclohexyl}-amide] gave a pKi (human 5-HT2A receptor) of 8.09, a pKi (human D2 receptor) of 6.98 and a melting point of 202 °C. For the same compound, the pKi (human D3 receptor) was 8.11.

Work on O=C(N[C@H]1CC[C@H](CCN2CCC(c3coc4ccccc34)CC2)CC1)C1CCCOC1 (stereo partly drawn) [Example 26, Tetrahydro-pyran-3-carboxylic acid trans-{4-[2-(4-benzofuran-3-yl-piperidin-1-yl)-ethyl]-cyclohexyl}-amide] yielded a pKi (human 5-HT2A receptor) of 8.33, a pKi (human D2 receptor) of 7.43 and a melting point of 188 °C. For the same compound, the pKi (human D3 receptor) was 8.23.

CC(C)(O)CC(=O)N[C@H]1CC[C@H](CCN2CCC(c3coc4ccccc34)CC2)CC1 [Example 34, trans-N-{4-[2-(4-Benzofuran-3-yl-piperidin-1-yl)-ethyl]-cyclohexyl}-3-hydroxy-3-methyl-butyramide] gave a pKi (human 5-HT2A receptor) of 8.29, a pKi (human D2 receptor) of 7.38 and a melting point of 150 °C. The pKi (human D3 receptor) was 8.65.

Work on CCC(C)C(=O)N[C@H]1CC[C@H](CCN2CCC(c3coc4ccccc34)CC2)CC1 (mixture of isomers) [Example 31, trans-N-{4-[2-(4-Benzofuran-3-yl-piperidin-1-yl)-ethyl]-cyclohexyl}-(RS)-2-methyl-butyramide] yielded a pKi (human 5-HT2A receptor) of 8.18, a pKi (human D2 receptor) of 7.34 and a melting point of 172 °C. The pKi (human D3 receptor) was 8.32.

Compound N#CCC(=O)N[C@H]1CC[C@H](CCN2CCC(c3coc4ccccc34)CC2)CC1 [Example 23, trans-N-{4-[2-(4-Benzofuran-3-yl-piperidin-1-yl)-ethyl]-cyclohexyl}-2-cyano-acetamide] has a pKi (human 5-HT2A receptor) of 8.22, a pKi (human D2 receptor) of 7.38 and a melting point of 186 °C. It also gave a pKi (human D3 receptor) of 9.08.

CCS(=O)(=O)N[C@H]1CC[C@H](CCN2CCC(c3coc4ccccc34)CC2)CC1 [Example 37, Ethanesulfonic acid trans-{4-[2-(4-benzofuran-3-yl-piperidin-1-yl)-ethyl]-cyclohexyl}-amide] gave a pKi (human 5-HT2A receptor) of 8.29, a pKi (human D2 receptor) of 7.32 and a melting point of 153 °C. For the same compound, the pKi (human D3 receptor) was 8.54.

CCC(=O)N[C@H]1CC[C@H](CCN2CCC(c3coc4ccccc34)CC2)CC1 [Example 5, trans-N-{4-[2-(4-Benzofuran-3-yl-piperidin-1-yl)-ethyl]-cyclohexyl}-propionamide] gave a pKi (human 5-HT2A receptor) of 8.34, a pKi (human D2 receptor) of 7.32 and a melting point of 162 °C. For the same compound, the pKi (human D3 receptor) was 8.91.

Work on O=C(CC1COCCO1)N[C@H]1CC[C@H](CCN2CCC(c3coc4ccccc34)CC2)CC1 (mixture of isomers) [Example 8, trans-N-{4-[2-(4-Benzofuran-3-yl-piperidin-1-yl)-ethyl]-cyclohexyl}-(RS)-2-[1,4]dioxan-2-yl-acetamide] yielded a pKi (human 5-HT2A receptor) of 8.69, a melting point of 172 °C and a pKi (human D3 receptor) of 8.69.

With O=C(N[C@H]1CC[C@H](CCN2CCC(c3coc4ccccc34)CC2)CC1)C1CCOC1 (mixture of isomers) [Example 17, (RS)-Tetrahydro-furan-3-carboxylic acid trans-{4-[2-(4-benzofuran-3-yl-piperidin-1-yl)-ethyl]-cyclohexyl}-amide] the pKi (human 5-HT2A receptor) was 8.23, the pKi (human D2 receptor) was 7.28 and the melting point was 183 °C.
